What was measured:
[1] = biological target: CBP bromodomain (Homo sapiens, UniProt Q92793); assay: AlphaScreen peptide displacement assay, CBP; assay type: binding; conditions: for affinity for the CBP bromodomain, in words: AlphaScreen using isolated bromodomains
[2] = biological target: first bromodomain of BRD4 (BRD4(1)) (Homo sapiens, UniProt O60885); assay: AlphaScreen peptide displacement assay, BRD4; assay type: binding; conditions: for inhibition of BRD4(1), in words: AlphaScreen using isolated bromodomains
[3] = biological target: CBP (Homo sapiens, UniProt Q92793); assay: DSF thermal shift, CBP; assay type: binding
[4] = Re-examination of stock solutions by LCMS; assay type: physicochemical; conditions: mass loss of 18 amu, likely dehydration to indene 16

Chain of CBP bromodomain (Q92793 1085-1192 limits assumed): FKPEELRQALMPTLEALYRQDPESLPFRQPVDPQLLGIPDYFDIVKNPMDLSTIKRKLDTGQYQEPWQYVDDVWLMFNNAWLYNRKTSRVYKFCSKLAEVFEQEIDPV
Chain of CBP (Q92793 1085-1192 limits assumed): as above

Compound: Cc1noc(C)c1-c1ccc2c(c1)C(OCc1ccccc1)CC2 (stereo not drawn) [Compound 9]
- IC50 [1]: > 10 µM

Compound: Cc1noc(C)c1-c1ccc2nc[nH]c2c1 [Compound 8]
- affinity/potency for BRD4(1) compared with CBP, in words ([2]; AlphaScreen): comparable affinity for both bromodomains

Compound: Cc1noc(C)c1-c1ccc2cc[nH]c2c1 [Compound 7]
- inhibition of BRD4(1), in words [2]: modest inhibitors
- affinity for the CBP bromodomain, in words [1]: no affinity

Compound: Cc1noc(C)c1-c1ccc2ncn(Cc3ccc(C#N)cc3)c2c1 [Compound 28a]
- selectivity for BRD4(1) over CBP ([2]; AlphaScreen BRD4(1) vs CBP): at least 100 fold
- stabilization of CBP, in words [3]: only minimal stabilization

Compound: Cc1noc(C)c1-c1ccc2c(c1)C(=O)CC2 [Compound 6]
- inhibition of BRD4(1), in words [2]: modest inhibitors
- affinity for the CBP bromodomain, in words [1]: no affinity

Compound: Cc1noc(C)c1-c1ccc2c(c1)C(O)(c1ccccc1)CC2 (stereo not drawn) [Compound 15]
- chemical stability of stock solutions, in words [4]: decomposition of the parent compound

— PMC4678575 (MedChemComm, 2013)
